Experiments:
[1] = system: GMC101 (Aβ worms); assay: Survival rate of Aβ worms; format: in vivo, C. elegans; settings: administered at D3; D5 of adulthood
Method: Briefly, Netoglitazone stocks (5 mM in 100% DMSO) were used at an appropriate concentration to seed 9-cm NGM plates. Plates were then placed in a laminar flow hood at room temperature (22° C.) for up to 4 hours to dry. C. elegans cultures were then transferred onto media seeded with compound as L4 stage or Day 3 for late treatments and incubated at 24° for the whole experiment. Experiments were carried out at different Netoglitazone concentrations ranging from 0.05 to 500 μM in 1% DMSO. As controls, plates seeded only with 1% DMSO were used.

[2] = system: CL2355 (Aβ1-42Neur worms); assay: Chemotaxis assay, Aβ1-42Neur worms; format: in vivo, C. elegans; settings: 5 μM; 5 days at 24° C.; day 6 of adulthood; compared to untreated worms
Method: Chemotaxis measurements were carried out as previously described (O. Margie, C. Palmer, I. Chin-Sang, C. elegans Chemotaxis Assay. J Vis Exp, e50069 (2013)) and as illustrated in FIG. 6C. Briefly, adult synchronized transgenic C. elegans CL2355 worms and wild-type healthy worms were incubated with or without 5 μM Netoglitazone for 5 days 24° C. At day 6 of adulthood the worms were then collected, washed with M9 buffer three times, and assayed in 9 cm screening plates (1.9% agar, 1 mM CaCl2, 1 mM MgSO4, and 25 mM phosphate buffer, pH 6.0) seeded with 50 μl of a 10× culture of Op50 Bacteria or sterile water, as attractant or test conditions, respectively and in combination with 1 μl of 1M Levamisole. Ca. 200 worms were placed in the central quadrant of the plate and incubated at 24° C. for 8 h, after which the chemotaxis index (CI) was scored. The CI was defined as follows (O. Margie et al (2013)):
(number of worms at the attractant locations−number of worms at the control locations)/total number of worms on the plate
Worms that were remaining in the central quadrant were excluded.

[3] = system: NL5901 (α-syn worms); assay: Automated motility assay, α-syn worms; format: in vivo, C. elegans; settings: same concentration range; compared with effect in Aβ worms
Method: NL5901 (pkIs2386 [α-synuclein::YFP unc-119(+)]) (“α-syn worms”), in which α-synuclein fused to YFP relocates to inclusions, which are visible as early as day 2 after hatching and increase in number and size during the aging of the animals, up to late adulthood (day 17) (T. J. Van Ham et al., C. elegans model identifies genetic modifiers of α-synuclein inclusion formation during aging. PLoS Genetics. 4 (2008));
Briefly, Netoglitazone stocks (5 mM in 100% DMSO) were used at an appropriate concentration to seed 9-cm NGM plates. Plates were then placed in a laminar flow hood at room temperature (22° C.) for up to 4 hours to dry. […]
All C. elegans populations were cultured at 20° C. and developmentally synchronized from a 4 h egg-lay. At 64-72 h post-egg-lay (time zero), individuals were transferred to FUDR plates, and body movements were assessed over the times indicated. At different ages, the animals were washed off the plates with M9 buffer and spread over an OP-50 unseeded 9 cm plate, after which their movements were recorded at 20 fps using a recently developed microscopic procedure (M. Perni et al., Massively parallel C. elegans tracking provides multi-dimensional fingerprints for phenotypic discovery. J. Neurosci. Methods. 306, 57-67 (2018)) for 1 min. Up to 600 animals were counted in each experiment in duplicate unless stated otherwise. […]

[4] = biological target: T1, Aβ42 fibrils (Homo sapiens, UniProt P05067); assay: Dot-blot assay with fibril-specific OC antibody; format: biochemical; settings: 2 μM Aβ42; 5-fold excess of compound; eight time points
T1 construct: […]; made in house; host or cells: E. coli BL21 Gold (DE3)
T1 sequence (P05067 671-713): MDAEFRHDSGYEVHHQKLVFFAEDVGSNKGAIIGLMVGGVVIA
Method: Blotting was performed using Aβ42 fibril-specific antibody (OC, Millipore). During the time course of the aggregation of a 2 μM Aβ42 in the absence and in the presence of 5-fold excess of Netoglitazone, 4 μL Aβ42 aliquots were removed from the mixture at different time points for blotting with OC. Aβ42 aliquots were spotted onto a nitrocellulose membrane (0.2 μm, Whatman) and then the membranes were dried and then blocked with Blocking One (Nacalai tesque) before immuno-detection. OC was used according to the manufacturer's instructions. Alexa Fluor® 488-conjugated secondary antibodies (Life technologies) were subsequently added and fluorescence detection was performed using Typhoon Trio Imager (GE Healthcare).

[5] = biological target: T2, Aβ42 (Homo sapiens, UniProt P05067); assay: ThT kinetic assay of Aβ42 fibril formation (unseeded); format: biochemical; settings: 2 μM Aβ42; range of Netoglitazone concentrations; ThT fluorescence
T2 construct: […]; made in house; host or cells: E. coli BL21 Gold (DE3)
T2 sequence (P05067 671-713): as above
Text: The recombinant Aβ(M1-42) peptide ([…]-SNKGAIIGLMVGGVVIA [SEQ ID NO: 1]), here called Aβ42, was expressed in the E. coli BL21 Gold (DE3) strain (Stratagene, CA, U.S.A.) and purified as described previously with slight modifications. Briefly, the purification procedure involved sonication of E. coli cells, dissolution of inclusion bodies in 8 M urea, and ion exchange in batch mode on diethylaminoethyl cellulose resin and lyophylization. The lyophilized fractions were further purified using Superdex 75 HR 26/60 column (GE Healthcare, Buckinghamshire, U.K.) and eluates were analyzed using SDS-PAGE for the presence of the desired protein product. The fractions containing the recombinant protein were combined, frozen using liquid nitrogen, and lyophilized again.
Except for Netoglitazone, which was custom synthesised by GVK BIO, all small molecules were purchased with a purity greater than 99%. Small molecules were first solubilized in 100% DMSO to a concentration of 5 mM, and then diluted in the peptide solution to reach a final DMSO concentration of maximum 1-3%. We verified that the addition of DMSO in the reaction mixture has no effect on Aβ42 aggregation.
Solutions of monomeric peptides were prepared by dissolving the lyophilized Aβ42 peptide in 6 M GuHCl. Monomeric forms were purified from potential oligomeric species and salt using a Superdex 75 10/300 GL column (GE Healthcare) at a flowrate of 0.5 mL/min, and were eluted in 20 mM sodium phosphate buffer, pH 8 supplemented with 200 μM EDTA and 0.02% NaN3. The centre of the peak was collected, and the peptide concentration was determined from the absorbance of the integrated peak area using ε280=1490 L mol^−1 cm^−1. The obtained monomer was diluted with buffer to the desired concentration and supplemented with 20 μM Thioflavin T (ThT) from a 1 mM stock. All samples were prepared in low binding Eppendorf tubes on ice using careful pipetting to avoid introduction of air bubbles. Each sample was then pipetted into multiple wells of a 96-well half-area, low-binding, clear bottom and PEG coating plate (Corning 3881), 80 μL per well. Aβ42 kinetics have been performed in the absence or the presence of Netoglitazone, Mitoglitazone, Rosiglotazone, Rivoglitazone, Pioglitazone, Ciglitazone, Englitazone, Darglitazone, Troglitazone and B alaglitazone.

O=C1NC(=O)C(Cc2ccc3cc(OCc4ccccc4F)ccc3c2)S1 (centres unmarked) [Netoglitazone]
survival rate after late administration [1]: increase
chemotaxis index [2]: significantly improved
effect on mobility of α-syn worms [3]: negligible
delay of Aβ42 fibril formation in dot blot assay compared with ThT-based assay [4]: identical within experimental error
delay in Aβ42 aggregation [5]: substantial delay
